We go through 21 compounds from patent US7217727B2, “Phospholipase inhibitors” (Eli Lilly and Company, priority 2003, dated 2007).

The target in the first series is T1, Recombinant Hepatic Lipase (Homo sapiens, UniProt P11150).
T1 construct: made in house; host or cells: AV12 cells
T1 sequence (P11150 23-499): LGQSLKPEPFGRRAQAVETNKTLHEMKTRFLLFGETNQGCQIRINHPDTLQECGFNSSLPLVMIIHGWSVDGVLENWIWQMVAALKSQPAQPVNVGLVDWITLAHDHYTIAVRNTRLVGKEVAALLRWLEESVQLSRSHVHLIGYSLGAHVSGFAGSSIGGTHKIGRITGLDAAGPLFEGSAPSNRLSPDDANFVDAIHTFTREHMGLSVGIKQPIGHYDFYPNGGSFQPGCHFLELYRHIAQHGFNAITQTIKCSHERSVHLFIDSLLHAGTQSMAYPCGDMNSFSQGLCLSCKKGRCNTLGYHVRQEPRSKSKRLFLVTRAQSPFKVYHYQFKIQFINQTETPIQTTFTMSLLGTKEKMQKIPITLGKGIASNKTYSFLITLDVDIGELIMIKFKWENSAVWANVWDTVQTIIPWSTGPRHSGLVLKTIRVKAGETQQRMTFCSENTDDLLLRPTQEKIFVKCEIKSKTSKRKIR
Kind of series: Hepatic Lipase Phospholipase Assay (ThioPEG substrate, DTNB read at 412 nm). Format: biochemical. To be noted: recombinant HL 12.5 nM, 37° C., pH 8.3, read-out: IC50 (nM), hepatic lipase inhibition assay. On the procedure:
Hepatic Lipase Phospholipase Assay
Efficacy was determined by testing various compounds of the invention in a hepatic lipase and/or endothelial lipase assay discussed below, and disclosed in U.S. patent application Ser. No. 09/609, 871 filed Jul. 3, 2000 incorporated herein in its entirety for U.S Patent office purposes.
• Substrate Buffer A: 100 mM Hepes, pH 8.3 at 37° C. • Substrate Buffer B: 100 mM Hepes, pH 8.3 at 37° C. with 6.83 mM Triton X100 • ThioPEG: Molecular wt. of 540 • Recombinant Hepatic Lipase • Thiophospholipid: about 0.42 mM thiophospholipid in chloroform • DTNB Solution: about […] DTNB in DMSO (dimethyl sulfoxide) Hepes Buffer A
For Hepes Buffer A,.there is 2.4 g Hepes/100 mL water. Therefore 36 grams of Hepes is dissolved in 1500 mL of water. The mix solution's pH is adjusted to pH83 at 37° C. and brought up to 1500 mL with water. 500 mL of Buffer A is retained for the Protein Buffer.
To the remaining 1000 mL of Hepes Buffer A, 4.49 g of Triton X-100 is added and then the combination mixed on a stir plate. It is optimal that stock Buffer A not be too cold or Triton X-100 will take a long time to go into solution […]
The enzyme is stored at −80° C. in 100 or 50 μL portions. […] The enzyme should then be stored on ice until ready to use. […]
For the compound `O=C(NCc1ccccc1)n1oc2ccccc2c1=O`, the IC50 was 60 nM.

Tested on in a further series: not given
Experiment: not given
Details: not given
`CCNC(=O)n1oc2ccccc2c1=O` [Example 1, 3-Oxo-3H-benzo[d]isoxazole-2-carboxylic acid ethylamide] returned a melting point of 112 to 113 °C. Same read-out and setting: the figure for `CCCCNC(=O)n1oc2ccccc2c1=O` [Example 2, 3-Oxo-3H-benzo[d]isoxazole-2-carboxylic acid butylamide] is 64 to 65 °C.

For the compound `CCCCCCNC(=O)n1oc2ccccc2c1=O` [Example 3, 3-Oxo-3H-benzo[d]isoxazole-2-carboxylic acid hexylamide], the melting point lay in the range of 46 to 48 °C. Compound `CC(C)CCCCNC(=O)n1oc2ccccc2c1=O` [Example 4, 3-Oxo-3H-benzo[d]isoxazole-2-carboxylic acid (5-methyl-hexyl)amide] returned a melting point of 73 to 75 °C. In turn, `CCCCCCCCNC(=O)n1oc2ccccc2c1=O` [Example 5, 3-Oxo-3H-benzo[d]isoxazole-2-carboxylic acid octylamide] registered a melting point of 47 to 48 °C. On to `O=C(NCC1CCCCC1)n1oc2ccccc2c1=O` [Example 6, 3-Oxo-3H-benzo[d]isoxazole-2-carboxylic acid cyclohexylmethyl-amide], for which the melting point was in the range of 82 to 84 °C. The same measure, in the same setting: the figure for `Cc1ccccc1CNC(=O)n1oc2ccccc2c1=O` [Example 8, 3-Oxo-3H-benzo[d]isoxazole-2-carboxylic acid 2-methyl-benzylamide] is 154 to 155 °C; for `Cc1cccc(CNC(=O)n2oc3ccccc3c2=O)c1` [Example 9, 3-Oxo-3H-benzo[d]isoxazole-2-carboxylic acid 3-methyl-benzylamide] it is 110 to 112 °C. The same measure, in the same setting: the figure for `O=C(NCc1ccccc1C(F)(F)F)n1oc2ccccc2c1=O` [Example 11, 3-Oxo-3H-benzo[d]isoxazole-2-carboxylic acid 2-trifluoromethyl-benzylamide] is 139 to 141 °C; for `O=C(NCc1ccccc1F)n1oc2ccccc2c1=O` [Example 12, 3-Oxo-3H-benzo[d]isoxazole-2-carboxylic acid 2-fluoro-benzylamide] it is 142 to 143 °C. Same read-out and setting: the figure for `CCc1ccccc1CNC(=O)n1oc2ccccc2c1=O` [Example 14, 3-Oxo-3H-benzo[d]isoxazole-2-carboxylic acid 2-ethyl-benzylamide] is 107 to 109 °C. For the compound `CCc1cccc(CNC(=O)n2oc3ccccc3c2=O)c1` [Example 15, 3-Oxo-3H-benzo[d]isoxazole-2-carboxylic acid 3-ethyl-benzylamide], the melting point lay in the range of 72 to 73 °C. Turning to `CC(C)(C)c1ccc(CNC(=O)n2oc3ccccc3c2=O)cc1` [Example 16, 3-Oxo-3H-benzo[d]isoxazole-2-carboxylic acid 4-tert-butyl-benzylamide], the melting point fell in the range of 123 to 125 °C. On the same count and under the same terms, the figure for `Cc1cccc(C(C)C)c1CNC(=O)n1oc2ccccc2c1=O` [Example 17, 3-Oxo-3H-benzo[d]isoxazole-2-carboxylic acid 2-isopropyl-6-methyl-benzylamide] is 112 to 114 °C; for `COc1cccc(CNC(=O)n2oc3ccccc3c2=O)c1` [Example 18, 3-Oxo-3H-benzo[d]isoxazole-2-carboxylic acid 3-methoxy-benzylamide] it is 99 to 100 °C. Consider `COc1ccc(CNC(=O)n2oc3ccccc3c2=O)cc1` [Example 19, 3-Oxo-3H-benzo[d]isoxazole-2-carboxylic acid 4-methoxy-benzylamide], for which the melting point was in the range of 140 to 141 °C. As to `CCOc1ccccc1CNC(=O)n1oc2ccccc2c1=O` [Example 20, 3-Oxo-3H-benzo[d]isoxazole-2-carboxylic acid 2-ethoxy-benzylamide], the melting point fell in the range of 110 to 112 °C. Turning to `CCOc1cccc(CNC(=O)n2oc3ccccc3c2=O)c1` [Example 21, 3-Oxo-3H-benzo[d]isoxazole-2-carboxylic acid 3-ethoxy-benzylamide], the melting point lay within 89 to 90 °C. In the case of `CCOc1ccc(CNC(=O)n2oc3ccccc3c2=O)cc1` [Example 22, 3-Oxo-3H-benzo[d]isoxazole-2-carboxylic acid 4-ethoxy-benzylamide], the melting point lay within 110 to 112 °C.

Compound `O=C(NCCc1ccccc1)n1oc2ccccc2c1=O` [Example 23, 3-Oxo-3H-benzo[d]isoxazole-2-carboxylic acid phenethyl-amide] returned a melting point of 106 to 107 °C.

What is called IC50 is the concentration that gives 50% inhibition. By melting point is commonly meant the temperature of the solid-liquid transition.
